Experimental findings from publication PMC10451377, “Rationally Designed Pyrimidine Compounds: Promising Novel Antibiotics for the Treatment of Staphylococcus aureus-Associated Bovine Mastitis” (Antibiotics, 2023) are described below.

One test concerns S. haemolitycus. The test is described as follows: Susceptibility of isolate panel (MIC50, MIC90, range). It counts as cell-based, S. haemolyticus. The source says: (§1) Reference strains for this study (S. aureus ATCC 29213, ATCC 29740 [bovine mastitis strain Newbould], S. epidermidis ATCC 12228, E. coli ATCC 35695, E. faecalis ATCC 29212) were obtained from the American Type Culture Collection (ATCC, Rockville, MD). S. aureus strains CMRSA-10 and CMRSA-2 were obtained from the Laboratoire de santé publique du Québec (LSPQ, Sainte-Anne-de-Bellevue, QC, Canada) and are Canadian CA-MRSA USA-300 and HA-MRSA USA-100 clones, respectively. The strain E. coli imp4213 (lptD), used as a control in MIC assays, is a derivative of E. coli ATCC 35695 (E. coli MC4100) with an increased membrane permeability. […] Other MRSA strains used in this study are clinical isolates of human origin obtained from the microbiology laboratory of the Centre Hospitalier Universitaire de Sherbrooke (CHUS, Sherbrooke, QC, Canada). Bovine mastitis strains (S. aureus, S. chromogenes, S. haemolyticus, S. hominis, S. simulans) were obtained from the Canadian Bovine Mastitis and Milk Quality Research Network (CBRQMN, St-Hyacinthe, QC, Canada). Among these strains, S. aureus 2117 is a high producer of biofilm and was used in the biofilm-eradication assay. S. epidermidis isolates were provided by Centre de Recherche en Infectiologie (CRI) de Québec (Québec, QC, Canada).
(§2) The antibacterial activity of the most promising compound, PC206, was also evaluated against larger groups of clinical isolates of human and animal origin. The MIC50 and MIC90 values represented the concentrations of drug required to inhibit the growth of 50% and 90% of the bacterial strains tested, respectively.

Another test relates to Bovine S. aureus. The description is as above. The test is classed as cell-based, Staphylococcus aureus.
Source text: as §1, §2

The subject of a further test is MRSA. The description is as above. The test is classed as cell-based, Staphylococcus aureus.
Source text: as §1, §2

A further test relates to S. epidermidis. Described as above. The test is classed as cell-based.
Source text: as §1, §2

The subject of another test is S. hominis. Described as above. The test is classed as cell-based.
Source text: as §1, §2

In the next test the test system is S. chromogenes. The test is described as above. It counts as cell-based.
Source text: as §1, §2

In another test the test system is S. simulans. The test is described as above. It counts as cell-based.
Source text: as §1, §2

The subject of test [1] is Staphylococcus aureus ATCC 29213. The test is described as follows: Broth microdilution MIC. Particulars: ATCC29213, read-out: Broth Microdilution MIC. (In general: In broth dilution the organism is exposed to a series of concentrations in liquid medium.)
The subject of test [2] is Escherichia coli ΔlptD4213. The test is described as follows: microbe, parasite or virus in culture. The test is classed as cell-based. Particulars: read-out: Broth Microdilution MIC.
Source text: as §1

Test [3] concerns Bacillus subtilis xpt-lacZ. Description: Broth microdilution MIC. It counts as cell-based. As to conditions: read-out: Broth Microdilution MIC.
The test system of test [4] is Staphylococcus epidermidis ATCC 12228. The test is described as follows: Broth microdilution MIC. As to conditions: ATCC12228, read-out: Broth Microdilution MIC.
The subject of test [5] is Escherichia coli ATCC 35695. Description: Broth microdilution MIC. As to conditions: ATCC35695, read-out: Broth Microdilution MIC.
Test [6] relates to S. aureus bovine strain 2117 embedded in preformed biofilm. The test is described as follows: Biofilm-eradication test (MBEC assay). Particulars: concentrations up to 512 µg/mL. The test is classed as cell-based, Staphylococcus aureus. Here is the method:
The viability of bacteria in preformed biofilms treated with PC206 was evaluated using the MBEC assay™ system (formerly the Calgary Biofilm Device). The device consists of a plastic lid with 96 pegs and a 96-well plate. […] Plates were incubated at 35 °C for 24 h with agitation (120 rpm). […] The pegs were washed three times with PBS and the biofilm was sonicated for 10 min, and then transferred into a new 96-well base plate. The 96-well plate was centrifuged for 5 min at 180 g to recover the detached bacteria.

Test [7] has as its system Staphylococcus aureus CMRSA-10. The test is described as follows: Broth microdilution MIC. As to conditions: CMRSA10, read-out: Broth Microdilution MIC. The test is classed as cell-based.
Source text: as §1

The test system of test [8] is Staphylococcus aureus CMRSA-2. Description: Broth microdilution MIC. It counts as cell-based. Particulars: CMRSA2, read-out: Broth Microdilution MIC.
Source text: as §1

Test [9] concerns Enterococcus faecalis ATCC 29212. The test is described as follows: Broth microdilution MIC. As to conditions: ATCC29212, read-out: Broth Microdilution MIC.

Converted amounts (≈) assume the structure as drawn. Where two headings read alike, the source gives them in different places. Bounds are passed on as bounds.

For `CC[C@@H]1CCN[C@H](C(=O)N[C@@H]([C@H]2O[C@H](SC)[C@H](O)[C@@H](O)[C@H]2O)[C@H](C)Cl)C1` [PIR, pirlimycin], the MIC50 (usually the lowest concentration that inhibits either 50% of growth or 50% of the strains tested, depending on the study) in the test with S. haemolitycus (S. haemolitycus, 10 isolates) was 0.25 µg/mL (≈ 0.608 µM); against Bovine S. aureus (Bovine S. aureus, 48 isolates), 0.25 µg/mL (≈ 0.608 µM); against MRSA (42 isolates) it was over 64 µg/mL; against S. epidermidis (S. epidermidis, 10 isolates), 0.12 µg/mL (≈ 0.292 µM); in the test with S. hominis (S. hominis, 10 isolates) it was 1 µg/mL (≈ 2.43 µM); against S. chromogenes (S. chromogenes, 5 isolates), 0.06 µg/mL (≈ 0.146 µM). In the test with S. simulans (S. simulans, 5 isolates), this molecule had an MIC50 of 0.12 µg/mL (≈ 0.292 µM). Further, the MIC90 (commonly the lowest concentration that inhibits either 90% of growth or 90% of the strains tested, depending on the study) against S. haemolitycus (S. haemolitycus, 10 isolates) is on record as over 16 µg/mL; with Bovine S. aureus (Bovine S. aureus, 48 isolates), 0.5 µg/mL (≈ 1.22 µM); in the test with MRSA (42 isolates) it was over 64 µg/mL; against S. epidermidis (S. epidermidis, 10 isolates) it was over 16 µg/mL; in the test with S. hominis (S. hominis, 10 isolates) it was over 16 µg/mL; with S. chromogenes (S. chromogenes, 5 isolates), 1 µg/mL (≈ 2.43 µM). The molecule further returned an MIC90 against S. simulans (S. simulans, 5 isolates) of 0.25 µg/mL (≈ 0.608 µM). Further, the “MIC Range” value with Bovine S. aureus (Bovine S. aureus, 48 isolates) lay within 0.12 to 1 µg/mL; against S. chromogenes (S. chromogenes, 5 isolates) it was 0.06 to 2 µg/mL; against S. simulans (S. simulans, 5 isolates) it was 0.12 to 0.25 µg/mL.

In the case of `CN[C@H](CC(C)C)C(=O)N[C@H]1C(=O)N[C@@H](CC(N)=O)C(=O)N[C@H]2C(=O)N[C@H]3C(=O)N[C@H](C(=O)N[C@H](C(=O)O)c4cc(O)cc(O)c4-c4cc3ccc4O)[C@H](O)c3ccc(c(Cl)c3)Oc3cc2cc(c3O[C@@H]2O[C@H](CO)[C@@H](O)[C@H](O)[C@H]2O[C@H]2C[C@](C)(N)[C@H](O)[C@H](C)O2)Oc2ccc(cc2Cl)[C@H]1O` [VAN, vancomycin], the MIC in [1] is 0.5 µg/mL (≈ 0.345 µM); in [2] it was 1 µg/mL (≈ 0.69 µM); in test [3] it was 0.25 µg/mL (≈ 0.173 µM); in test [4], 1 µg/mL (≈ 0.69 µM); in test [5], over 128 µg/mL; in test [7], 1 µg/mL (≈ 0.69 µM). For the same molecule, the values for the MIC in test [8] and in [9] were 1 µg/mL (≈ 0.69 µM) and 4 µg/mL (≈ 2.76 µM), respectively. Besides, the “Effect on viable counts in preformed biofilm” value in test [6] is “did not impact viable counts”. Moreover, the “MIC Range” value was 0.25 to 4 µg/mL with S. haemolitycus (S. haemolitycus, 10 isolates); 0.25 to 1 µg/mL against Bovine S. aureus (Bovine S. aureus, 48 isolates); 0.5 to 4 µg/mL in the test with MRSA (42 isolates); 0.5 to 1 µg/mL in the test with S. epidermidis (S. epidermidis, 10 isolates); 0.25 to 1 µg/mL in the test on S. hominis (S. hominis, 10 isolates); 0.5 µg/mL (≈ 0.345 µM) against S. chromogenes (S. chromogenes, 5 isolates). In addition, the “MIC Range” value in the test with S. simulans (S. simulans, 5 isolates) came to 0.5 µg/mL (≈ 0.345 µM). The MIC50 came out at 2 µg/mL (≈ 1.38 µM) in the test on S. haemolitycus (Staphylococcus haemolyticus); 0.5 µg/mL (≈ 0.345 µM) against Bovine S. aureus (Staphylococcus aureus); 1 µg/mL (≈ 0.69 µM) in the test with MRSA (Staphylococcus aureus); 1 µg/mL (≈ 0.69 µM) in the test with S. epidermidis (Staphylococcus epidermidis); 0.5 µg/mL (≈ 0.345 µM) in the test on S. hominis (Staphylococcus hominis); 0.5 µg/mL (≈ 0.345 µM) against S. chromogenes. This molecule also yielded an MIC50 against S. simulans (Staphylococcus simulans) of 0.5 µg/mL (≈ 0.345 µM). Besides, the MIC90 is 4 µg/mL (≈ 2.76 µM) against S. haemolitycus (Staphylococcus haemolyticus); 0.5 µg/mL (≈ 0.345 µM) in the test with Bovine S. aureus (Staphylococcus aureus); 4 µg/mL (≈ 2.76 µM) against MRSA (Staphylococcus aureus); 1 µg/mL (≈ 0.69 µM) against S. epidermidis (Staphylococcus epidermidis); 0.5 µg/mL (≈ 0.345 µM) against S. hominis (Staphylococcus hominis); 0.5 µg/mL (≈ 0.345 µM) in the test on S. chromogenes. Also, the MIC90 against S. simulans (Staphylococcus simulans) is 0.5 µg/mL (≈ 0.345 µM).
